Like-named read-outs stand apart in the source and are kept apart here.
Experiments:
[1] = test system: HIV-1 NL4-3 ΔV370 variant (NLRepRlucP373S/Δ370); assay type: cell-based
[2] = test system: HIV-1 RF; experiment: Multiple-cycle assay, laboratory strains; assay type: cell-based; settings: Human immunodeficiency virus 1
[3] = test system: HIV-1 SF-2; experiment: Multiple-cycle assay, laboratory strains; assay type: cell-based; settings: Human immunodeficiency virus 1; SF-2, CXCR4, MT-2
[4] = test system: HIV-1 IIIB; experiment: Multiple-cycle assay, laboratory strains; assay type: cell-based; settings: Human immunodeficiency virus 1, CXCR4, MT-2
[5] = test system: HIV-1 LAI; experiment: Multiple-cycle assay, laboratory strains; assay type: cell-based; settings: Human immunodeficiency virus 1
[6] = test system: HIV-1 MN; experiment: Multiple-cycle assay, laboratory strains; assay type: cell-based; settings: Human immunodeficiency virus 1, CXCR4, MT-2
[7] = test system: HIV-1 Bal; experiment: Multiple-cycle assay, laboratory strains; assay type: cell-based; settings: Human immunodeficiency virus 1, CCR5, PM1
[8] = test system: HIV-1 JRFL; experiment: Multiple-cycle assay, laboratory strains; assay type: cell-based; settings: Human immunodeficiency virus 1, CCR5, PM1
[9] = test system: HIV-2 CBL-23; experiment: Multiple-cycle assay, laboratory strains; assay type: cell-based; settings: HIV-2 CBL-23, MT-2
[10] = test system: subtype B gag/pr recombinant viruses; experiment: Multiple-cycle Gag/Pr phenotyping assay; assay type: cell-based, HIV-1
[11] = test system: subtype C gag/pr recombinant viruses; experiment: Multiple-cycle Gag/Pr phenotyping assay; assay type: cell-based, HIV-1
[12] = target: T1, HIV-1 gp160 (Human immunodeficiency virus type 1 group M subtype B, UniProt P04578); experiment: HIV-1 cell fusion assay; assay type: cell-based
T1 construct: expressed in transfected cells; host or cells: NL-TOE donor cells (target cells: HeLa C14)

[13] = target: HIV-1 reverse transcriptase (Human immunodeficiency virus type 1 group M subtype B, UniProt P03366); experiment: In vitro HIV-1 reverse transcriptase assay; assay type: biochemical
[14] = target: HIV-1 integrase (Human immunodeficiency virus type 1 group M subtype B, UniProt P03366); experiment: HIV-1 integrase inhibitor binding assay
[15] = target: HIV-1 protease (Human immunodeficiency virus type 1 group M subtype B, UniProt P03366); experiment: HIV-1 protease assay; assay type: biochemical
[16] = test system: HIV-1 NL4-3; experiment: Time-of-addition study, NL4-3-infected B6 cells; assay type: cell-based; settings: single cycle, 24 h postinfection
[17] = initial / phase 2a clinical studies; cited from earlier work
[18] = in vitro; settings: dog
[19] = test system: MJ4, a subtype C molecular clone; experiment: RT activity in PBMCs; settings: Human immunodeficiency virus 1, PBMC
[20] = target: HIV-1 Gag (WT LAI VLPs) (Human immunodeficiency virus type 1 group M subtype B, UniProt P03348); experiment: [3H]BMS-955176-Gag binding (SPA)
[21] = Serum binding assay (ultracentrifugation)
[22] = test system: HIV-1 subtype B clinical isolates; experiment: Drug susceptibility assay using clinical isolates in PBMCs
[23] = test system: HIV-1 subtype C clinical isolates; experiment: as above
[24] = test system: HIV-1 subtype G clinical isolates; experiment: as above; settings: Human immunodeficiency virus 1, PBMC
[25] = test system: HIV-1 subtype F clinical isolate; experiment: as above; settings: Human immunodeficiency virus 1, PBMC
[26] = test system: HIV-1 group N clinical isolate; experiment: as above; settings: Human immunodeficiency virus 1, PBMC
[27] = test system: HIV-1 group O clinical isolates; experiment: as above; settings: Human immunodeficiency virus 1, PBMC
[28] = test system: viruses from subtypes A, C, D, F, and G; experiment: as above; settings: Human immunodeficiency virus 1, PBMC, read-out: EC50s (range)

`C=C(C)[C@@H]1CC[C@]2(NCCN3CCS(=O)(=O)CC3)CC[C@]3(C)[C@H](CC[C@@H]4[C@@]5(C)CC=C(c6ccc(C(=O)O)cc6)C(C)(C)[C@@H]5CC[C@]43C)[C@@H]12` [BMS-955176] gave an EC50 ([1]; Human immunodeficiency virus 1, NL43, MT2) of 13 nM, an EC50 ([1]; Human immunodeficiency virus 1, NL43, MT2, read-out: EC50 (SD)) of 13 nM and an EC50 [2] of 7.7 ± 1.4 nM. For the same molecule, the EC50 [3] was 11 ± 1.5 nM, the EC50 [4] was 2.8 ± 0.3 nM and the EC50 [5] was 2.6 ± 0.3 nM. It also gave an EC50 [6] of 0.9 ± 0.6 nM, an EC50 [7] of 0.7 ± 0.2 nM and an EC50 [8] of 2.5 ± 0.8 nM. The EC50 [9] was “completely resistant”, the EC50 ([9]; Human immunodeficiency virus 2, read-out: EC50) was over 1200 nM and the EC50 ([10]; Human immunodeficiency virus 1, read-out: EC50 (mean), full library, None (WT), n=51) was 3 nM. For the same molecule, the EC50 ([10]; Human immunodeficiency virus 1, read-out: EC50 (mean), full library, T371A/Q/N/S/TT, n=6) was 4 nM, the EC50 ([10]; Human immunodeficiency virus 1, read-out: EC50 (mean), full library, V362I, n=5) was 5.3 nM and the EC50 ([10]; Human immunodeficiency virus 1, read-out: EC50 (mean), full library, V370A + ΔT371, n=4) was 12 nM. It also gave an EC50 ([10]; Human immunodeficiency virus 1, read-out: EC50 (mean), full library, V370A, n=7) of 2 nM, an EC50 ([10]; Human immunodeficiency virus 1, read-out: EC50 (mean), full library, V370I/L/T, n=4) of 3 nM and an EC50 ([10]; Human immunodeficiency virus 1, read-out: EC50 (mean), full library, V370 M, n=9) of 7 nM. The EC50 ([10]; Human immunodeficiency virus 1, read-out: EC50 range, V362I-containing viruses, n=5) was 2 to 9.4 nM, the EC50 ([10]; Human immunodeficiency virus 1, read-out: EC50 range, all subtype B, n=87) was 0.7 to 22 nM and the EC50 ([10]; Human immunodeficiency virus 1, read-out: mean EC50, all subtype B, n=87) was 3.9 ± 3.4 nM. It also gave an EC50 ([10]; Human immunodeficiency virus 1, read-out: median EC50, V362I-containing viruses, n=5) of 5.7 nM, an EC50 ([10]; Human immunodeficiency virus 1, read-out: median EC50, WT subtype B (n=51)) of 2.5 nM and an EC50 ([10]; Human immunodeficiency virus 1, read-out: median EC50, all subtype B, n=87) of 2.8 nM. The EC50 ([10]; read-out: EC50 (mean), full library, V362I, n=5) was 5 nM, the EC50 ([11]; Human immunodeficiency virus 1, read-out: EC50 range) was 2.1 to 45 nM and the EC50 ([11]; Human immunodeficiency virus 1, read-out: mean EC50) was 10.9 ± 9.1 nM. For the same molecule, the EC50 ([11]; Human immunodeficiency virus 1, read-out: median EC50) was 8.8 nM, the EC50 [12] was over 2000 nM and the IC50 [13] was over 50000 nM. For the same molecule, the IC50 [14] was over 15000 nM, the IC50 [15] was over 10000 nM and the “effect on luciferase signal by time of addition” value [16] was “did not inhibit luciferase expression when added any time during infection”. For the same molecule, the “clinical safety and tolerability” value [17] was “safe and well tolerated”, the CC50 [18] was 3900 nM and the EC50 [19] was 3 nM. It also gave a Ki [20] of 5.6 nM, a Kd ([20]; Kd values, range of 5 experiments) of 2.3 to 6 nM and a Kd ([20]; Kd, saturation binding of [3H]BMS-955176 to LAI VLPs) of 5.5 nM. It also gave a human serum binding ([21]; 100% human serum, ultracentrifugation method) of 86%, a fraction unbound at 1 h, 0.052 µM ([21]; human, serum) of 0.14 and an EC50 ([22]; Human immunodeficiency virus 1, PBMC, read-out: Mean EC50 ± SD, PBMCs, B (96% of Gag diversity), 22 isolates) of 24 ± 24 nM. For the same molecule, the EC50 ([22]; Human immunodeficiency virus 1, PBMC, read-out: Mean EC50 ± SD, PBMCs, B (all), 26 isolates) was 67 ± 172 nM, the EC50 ([22]; Human immunodeficiency virus 1, PBMC, read-out: Median EC50, PBMCs, B (96% of Gag diversity), 22 isolates) was 17 nM and the EC50 ([22]; Human immunodeficiency virus 1, PBMC, read-out: Median EC50, PBMCs, B (all), 26 isolates) was 21 nM. The EC50 ([22]; Human immunodeficiency virus 1, PBMC, read-out: Range EC50, PBMCs, B (96% of Gag diversity), 22 isolates) was 1 to 110 nM, the EC50 ([22]; Human immunodeficiency virus 1, PBMC, read-out: Range EC50, PBMCs, B (all), 26 isolates) was 1 to 858 nM and the EC50 ([22]; Human immunodeficiency virus 1, PBMC, read-out: mean EC50, PBMCs, three less susceptible subtype B variants with Gag V370A/ΔT371) was 123 ± 162 nM. The EC50 ([22]; PBMC) was 860 nM, the EC50 ([23]; Human immunodeficiency virus 1, PBMC, PBMCs, one insensitive subtype C isolate) was 1400 nM and the EC50 ([23]; Human immunodeficiency virus 1, PBMC, read-out: Mean EC50 ± SD, PBMCs, C, 13 of 14 isolates) was 17 ± 11 nM. It also gave an EC50 ([23]; Human immunodeficiency virus 1, PBMC, read-out: Mean EC50 ± SD, PBMCs, C, 14 isolates) of 116 nM, an EC50 ([23]; Human immunodeficiency virus 1, PBMC, read-out: Median EC50, PBMCs, C, 13 of 14 isolates) of 14 nM and an EC50 ([23]; Human immunodeficiency virus 1, PBMC, read-out: Median EC50, PBMCs, C, 14 isolates) of 14 nM. For the same molecule, the EC50 ([23]; Human immunodeficiency virus 1, PBMC, read-out: Range EC50, PBMCs, C, 13 of 14 isolates) was 1 to 45 nM, the EC50 ([23]; Human immunodeficiency virus 1, PBMC, read-out: median EC50 values, Fig 7, PBMCs, C (Group M)) was 15000 nM and the EC50 ([23]; read-out: Range EC50, PBMCs, C, 14 isolates) was 1 to 1400 nM. It also gave an EC50 ([24]; read-out: Mean EC50 ± SD) of 11 ± 4 nM, an EC50 ([24]; read-out: Median EC50) of 10 nM and an EC50 ([24]; read-out: Range EC50) of 8 to 15 nM. The EC50 ([25]; read-out: Mean EC50) was 5.9 nM, the EC50 ([25]; read-out: Median EC50) was 6 nM and the EC50 ([25]; read-out: Range EC50) was 6 nM. For the same molecule, the EC50 ([26]; read-out: Mean EC50) was 7.2 nM, the EC50 ([26]; read-out: Median EC50) was 7 nM and the EC50 ([26]; read-out: Range EC50) was 7 nM. The EC50 ([27]; read-out: Mean EC50 ± SD, PBMCs, group O, 5 isolates) was 170 ± 240 nM, the EC50 ([27]; read-out: Median EC50, PBMCs, group O, 5 isolates) was 30 nM and the EC50 ([27]; read-out: Range EC50, PBMCs, group O, 5 isolates) was 1 to 552 nM. For the same molecule, the EC50 [28] was 5.9 to 87 nM.

— article PMC4914680 (Antimicrobial Agents and Chemotherapy, 2016)
